In US8173133B2, “Acyl pseudodipeptides which carry a functionalized auxiliary arm” (OM Pharma, priority 1999, dated 2012):
In brackets after ≈: the same amount, converted by molar mass.

What was measured:
[1] = test system: bone marrow stem cells; assay: bone marrow stem cell proliferation (XTT); type: cell-based, C57/BL6 mice; conditions: for Max amplitude: 7 days, XTT 492 nm; for Min amplitude: blank ± 3× standard deviation; for Max concentration: concentration at maximum amplitude; for EC50 conc: concentration corresponding to 50% of maximum amplitude; for Min concentration: lowest concentration inducing a significant proliferation
Description: 6-week old male C57/BL6 mice are killed by CO2 inhalation. The hip, femur, tibia and hind leg bones are removed. The marrow is extracted from the bone lumen by injecting Dulbecco's Modified Eagle Medium (DH medium) from the end portions which had been excised. The stem cells are washed and suspended again in DH medium supplemented with 20% foetal calf serum (FCS) The cell concentration is adjusted to 500000 cells/ml.
Products previously dissolved in DH medium supplemented with 20% FCS, amino acids and antibiotics are serially diluted directly into a microtiter plate. The products are tested in triplicate and each microtiter plate includes a negative control containing plain medium. The final volume in each well is 100 μl.
100 μl of the cell suspension are added to diluted solutions of products and the cells are incubated for 7 days in an incubator at 37° C., under 8% CO2 and a moisture saturated atmosphere. Cell proliferation is determined by measuring the […] of a chromogenic substrate XTT (2,3-bis[2-methoxy-4-nitro-5-sulphophenyl]-2H-tetrazolium-5-carboxanilide) in mitochondria of viable cells.
At the end of the incubation period, 50 μl of the XTT substrate solution (1 mg/ml XTT+0.008 mg/ml phenazine methosulfate) are added to each well. After an 8 hour incubation period at 37° C. under 8% CO2 in a moisture saturated incubator, the microtiter plates are read with a spectrophotometer at 492 nm against a reference sample at 690 nm.
Results are expressed as mean value±standard deviation and plotted as a dose versus response curve. Values for a negative control composed of DH medium (mean±standard deviation) are also graphically shown.
From this dose versus response curve, 3 curve variables are computed:
Max: maximum curve amplitude and corresponding concentration
EC50: concentration corresponding to 50% of maximum amplitude
Min: lowest concentration inducing a significant proliferation corresponding to the blank±3× standard deviation value
Concentration values corresponding to EC50 and Min are determined from line segments joining different points on the curve.
If the curve has no plateau phase but an ascending configuration for the highest concentration being tested, a “>” sign is shown before Max and EC50 values.

[2] = test system: predendritic cells (DC-6); assay: dendritic cell differentiation test: FITC-Dextran take-up; type: cell-based, human; conditions: for Dextran % CD / Dextran Fluorescence: 10 μg/ml; for Dextran % CD: products redissolved in pyrogen-free water, % of dendritic cells; for Dextran Fluorescence: mean fluorescence value
Experimental: The ability of products of the invention to induce maturation of predendritic cells into dendritic cells was assessed. The following parameters were measured: FITC-Dextran conjugate take-up and expression of CD83, CD86 surface markers.
Mononucleated cells of peripheral blood are isolated from buffy coats of healthy donors. Purified monocytes by adherence selection are resuspended in RPMI-1640 medium containing 10% of foetal calf serum (FCS), GM-CSF and IL-4 (10 ng/ml) at a density of 1×10^6 cells/ml. Cells are divided into Petri Dishes (10×10^6 cells per dish) and cultured for 6 days with a change to fresh medium after 3 days. Cells thus obtained are called predendritic cells (DC-6). Maturation of predendritic cells into mature dendritic cells is achieved by incubating cells with diluted solutions of the products or LPS (positive control) for 3 more days (see product section below). At day 9 (DC-9), cells are harvested and analyzed for different indicators of dendritic cell maturation: assessment of CD83, CD86 surface marker expression as well as of their ability to take up FITC-Dextran conjugate. All these parameters are analyzed by an EPICS-XL-MCL model FACS (Coulter Immunology, Hialeah, […]).
Expression of surface markers is given as % of mean fluorescence of LPS-activated cells (positive control); FITC-Dextran conjugate take-up rate is calculated based on take-up of cells maintained in basic medium and is expressed in %.
Solutions are incubated at 37° C. for 20 minutes, subjected to vigorous stirring during 3 minutes and then diluted to 100 μg/ml in RPMI-1640 culture medium and used in diluted state at concentrations ranging from 10 μg/ml to 0.03 μg/ml. Reference Product: E. coli lipopolysaccharide (LPS, DIFCO, Detroit, Mich., U.S.A.), as a 5 mg/ml stock solution in PBS. An intermediate 100 μg/ml solution is prepared in RPMI 1640 culture medium. Concentrations of dilute solutions being tested range from 1 μg/ml to 0.03 μg/ml.
In another series of experiments, all acyl dipeptide-like compounds were freeze-dried and directly redissolved into pyrogen-free water. Different products as well as LPS control are tested at a concentration of 10 μg/ml. Results are given as % of dendritic cells and mean fluorescence value for dextran phagocytosis or CD86 surface marker expression.
Immature dendritic cells (DC-6) resulting from monocyte differentiation, through the joint action of GM-CSF and IL-4, are able to incorporate FITC-Dextran conjugate. During the maturation process, cells lose their ability to incorporate the FITC-Dextran conjugate. Assays are conducted upon reaching the DC-9 differentiation stage.

[3] = test system: human peripheral blood mononuclear cells; assay: α TNF production by human peripheral blood mononuclear cells; type: cell-based; conditions: 18 hours
Experimental: Mononuclear cells of peripheral blood are recovered from buffy coats of 6 healthy donors. Such buffy coat cells are resuspended and mononuclear cells are isolated by centrifugation on a Ficoll-Paque gradient (Amersham Pharmacia). Purified mononuclear cells are resuspended into RPMI-1640 medium supplemented with 10% FCS, antibiotics, mercaptoethanol and L-glutamine. Cell concentration is adjusted to 2×10^6 viable cells/ml
100 μl of each one of these solutions of acyl dipeptide-like compounds bearing an accessory functional side chain spacer, diluted 100-, 10- or 1-fold in RPMI medium 1640, are dispensed into a microtiter plate. Samples are tested in triplicates, and each microtiter plate includes a negative control made up of plain medium. Dilutions of E. coli LPS (ranging grom 1 to 0.00001 μg/ml) are used as a positive control.
100 μl of the cell suspension are added to each well containing product dilute solutions or control. Cells are incubated with the products for 18 hours in an incubator at 37° C., under 5% CO2 and a moisture saturated atmosphere.
At the end of the incubation period, microtiter plates are centrifuged, and the supernatant fluids are pooled and frozen at −80° C. as aliquots until time of ELISA assay.
Concentration of α TNF secreted by mononuclear cells is determined by chemiluminescent ELISA (QuantiGlo #QTAOO R&D kit). 4-fold supernatant fluid dilutions are dispensed into each well of the microtiter plate to which anti-αTNF antibodies are bound. The microtiter plate is incubated for 4 hours at room temperature. After washing, peroxidase-conjugated anti-human a TNF antibody is added. Following a 2 hour incubation period and thorough washing, a chemiluminescent substrate is added and chemilunescence is read after 20 minutes. α TNF content in the supernatant fluid is determined with respect to a standard curve covering the 7000 to 0.7 pg/ml range.
Results are expressed in pg/ml of α TNF produced. Results derive from an experiment representative of acyl-dipeptide-like compound activity

[4] = test system: Limulus Amoebocyte Lysate

Row | SMILES | Max amplitude [1] [O.D] | Min amplitude [1] [O.D] | Max concentration [1] [µg/mL] | EC50 conc [1] [µg/mL] | Min concentration [1] [µg/mL] | Dextran % CD [2] [%] | Dextran Fluorescence [2] | phagocytic capacity retained (% incorporation of FITC-Dextran of unchallenged cells) ([2]; DC-9 stage, FIG. 74) [%] | concentration required to induce full decrease of Dextran take-up ([2]; FIG. 74) | concentration inducing differentiation of DC-6 cells into DC-9 cells ([2]; summary of phagocytosis and marker data) [µg/mL] | α TNF produced ([3]; product 1 μg/ml) [pg/mL] | α TNF produced ([3]; product 10 μg/ml) [pg/mL] | α TNF produced ([3]; product 100 μg/ml) [pg/mL] | LAL EU/mg of product [4] | LAL ng of LPS equivalent per mg of product [4]
1 | CCCCCCCCCCCC(=O)O[C@H](CCCCCCCCCCC)CC(=O)NC(CCOP(=O)(O)O)C(=O)NCCC[C@H](COC(=O)CCCCCN)NC(=O)C[C@H](O)CCCCCCCCCCC (mixture of isomers) [OM-197-MP-AC (R/S, R), (3RS,9R)-3-[(R)-3-dodecanoyloxytetradecanoylamino]-4oxo-5-aza-9-[(R)-3-hydroxytetradecanoylamino]-decan-10-ol 1-dihydrogen-phosphate(6-aminohexanoate)] | 2.12 | 0.80 | 25 | 3.1 (≈ 2.96 µM) | 0.71 | 84.6 | 6.3 | 22 | at least 1 μg/ml | 0.1 | 244 | 156 | 160 | 0.14 EU/mg of product | 0.011 ng of LPS equivalent per mg of product
2 | CCCCCCCCCCCC(=O)O[C@H](CCCCCCCCCCC)CC(=O)N[C@H](CC(=O)NCCCN)C(=O)NCCC[C@H](CO)NC(=O)C[C@H](O)CCCCCCCCCCC [OM-197-AP, N—[(R)-3-dodecanoyloxytetradecanoyl]-D-aspartic acid, α-N-{(4R)-5-hydroxy-4-[(R)-3-hydroxy-tetradecanoylamino]pentyl}-amide β-N-(3-aminopropyl)amide] | 1.49 | 0.80 | 25 | 2.2 (≈ 2.38 µM) | 0.41 | 56.1 | 4.4 |  |  |  | 428 | 116 | 84 | <0.5 EU/mg of product | <0.04 ng of LPS equivalent per mg of product
3 | CCCCCCCCCCCC(=O)O[C@H](CCCCCCCCCCC)CC(=O)N[C@H](CC(=O)N[C@@H](CC(=O)O)C(=O)O)C(=O)NCCC[C@H](CO)NC(=O)C[C@H](O)CCCCCCCCCCC [OM-197-Asp, N—[(R)-3-dodecanoyloxytetradecanoyl]-D-aspartic acid, α-N-{(4R)-5-hydroxy-4-[(R)-3-hydroxytetradecanoylamino]-pentyl}Amide β-N-[(1S)-1,2-Dicarboxyethyl]Amide] | 1.22 | 0.80 | 25 | 5.0 (≈ 5.08 µM) | 1.89 | 26.4 | 2.4 |  |  |  | 0 | 28 | 80 | <2.5 EU/mg of product | <0.2 ng of LPS equivalent per mg of product
4 | CCCCCCCCCCCC(=O)O[C@H](CCCCCCCCCCC)CC(=O)N[C@H](CC(=O)N[C@@H](CC(=O)O)C(=O)O)C(=O)NCCC[C@H](COC(=O)CCCCCN)NC(=O)C[C@H](O)CCCCCCCCCCC [OM-197-Asp-AC, N—[(R)-3-dodecanoyloxytetradecanoyl]-D-aspartic acid, α-N-{(4R)-5-(6-aminohexanoyloxy)-4-[(R)-3-hydroxytetradecanoyl-amino]-pentyl}amide β-N-[(1S)-1,2-dicarboxyethyl]Amide] | 1.33 | 0.80 | 50 | 2.8 (≈ 2.55 µM) | 1.27 | 22.0 | 22.1 |  |  |  | 20 | 172 | 132 | 2307 EU/mg of product | 184.6 ng of LPS equivalent per mg of product
5 | CCCCCCCCCCCC(=O)O[C@H](CCCCCCCCCCC)CC(=O)N[C@H](CC(=O)O)C(=O)NCCC[C@H](COC(=O)CCCCCN)NC(=O)C[C@H](O)CCCCCCCCCCC [OM-197-MC-AC, N—[(R)-3-dodecanoyloxytetradecanoyl]-D-aspartic acid, α-N-{(4R)-5-(6-aminohexanoyloxy)-4-[(R)-3-hydroxytetradecanoylamino]pentyl}amide] | 1.62 | 0.80 | 50 | 31.0 (≈ 31.6 µM) | 0.92 | 68.3 | 5.2 |  |  |  | 12 | 140 | 144 |  | 
